Experimental data taken from the supplement of paper PMC7021759.
± gives the standard deviation of the averaged measurements.

System: SK-N-MM (SKNMM-MYCN, doxycycline-inducible MYCN)
Assay: area under dose-response curve (CellTiter-Glo viability normalised to plate controls) (AUC (arbitrary units)); higher = more loss of viability; extreme values may be limits of the assay
How it was run: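 Compounds were pin-transferred as 10-point 1:3 dilution series (890-fold stock dilution) onto SK-N-MM cells with doxycycline-inducible MYCN, plated at 1250 cells/100 μL in 96-well plates and switched about 24 h after plating to medium with or without doxycycline two days before dosing. Dosing was repeated on day 4, and CellTiter-Glo luminescence was read 3 or 8 days after drugging. Area under the dose-response curve came from log2 signals normalised to the positive and negative controls on each plate.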

[1] = MYCN induction (doxycycline): +doxycycline (MYCN induced), time after drugging: 8 days
[2] = MYCN induction (doxycycline): +doxycycline (MYCN induced), time after drugging: 3 days
[3] = MYCN induction (doxycycline): no doxycycline (MYCN not induced), time after drugging: 3 days
[4] = MYCN induction (doxycycline): no doxycycline (MYCN not induced), time after drugging: 8 days

Compound	area under dose-response curve [1]	area under dose-response curve [2]	area under dose-response curve [3]	area under dose-response curve [4]
O=C(NC[C@H](O)CN1CCc2ccccc2C1)c1ccnc(NC2CCC2)c1	23.4			
CS(=O)(=O)c1ccc(-c2cnc(N)c(C(=O)Nc3ccccc3)n2)cc1 [VE-821]	75.9	41.9	8.07	32
CO[C@H]1C(=O)[C@]2(C)[C@@H](OC)C[C@H]3OC[C@@]3(OC(C)=O)[C@H]2[C@H](OC(=O)c2ccccc2)[C@]2(O)C[C@H](OC(=O)[C@H](O)[C@@H](NC(=O)OC(C)(C)C)c3ccccc3)C(C)=C1C2(C)C [CABAZITAXEL]	350	195	140	225
CC1(C)CCC(C)(C)c2cc(NC(=O)c3ccc(C(=O)O)cc3)ccc21 [TAMIBAROTENE]	3.09	1.1	0	0
Cn1cc(-c2cnn3c(N)c(Br)c([C@@H]4CCCNC4)nc23)cn1	122	67.2	31.4	74.9
CC(C)NC[C@@H](C(=O)N1CCN(c2ncnc3c2[C@H](C)C[C@H]3O)CC1)c1ccc(Cl)cc1 [IPATASERTIB]	0	0	10.4	0.0606
CN(C)CCCNC(=O)c1ccc(-c2cc(O)c3ncccc3c2)cc1 [ML324]	109	16.5	4.85	68.6
CC(C)c1cc(-c2n[nH]c(=O)n2-c2ccc3c(ccn3C)c2)c(O)cc1O [GANETESPIB]	378	169	202	398
Cc1c2oc3c(C)ccc(C(=O)N[C@@H]4C(=O)N[C@H](C(C)C)C(=O)N5CCC[C@H]5C(=O)N(C)CC(=O)N(C)[C@@H](C(C)C)C(=O)O[C@@H]4C)c3nc-2c(C(=O)N[C@@H]2C(=O)N[C@H](C(C)C)C(=O)N3CCC[C@H]3C(=O)N(C)CC(=O)N(C)[C@@H](C(C)C)C(=O)O[C@@H]2C)c(N)c1=O [DACTINOMYCIN]	282	140	91.4	210
Cc1nc(Nc2ncc(C(=O)Nc3c(C)cccc3Cl)s2)cc(N2CCN(CCO)CC2)n1 [DASATINIB]	121	39.9	40	51.4
O=C(NC1CCNCC1)c1n[nH]cc1NC(=O)c1c(Cl)cccc1Cl [AT-7519]	113	48.9		65.7
O=C(c1ccc(F)c(F)c1Nc1ccc(I)cc1F)N1CC(O)([C@@H]2CCCCN2)C1 [COBIMETINIB]	145		51.1	104
CC1(C)CNc2cc(NC(=O)c3cccnc3NCc3ccncc3)ccc21 [MOTESANIB DIPHOSPHATE]	0	0	5.62	0
Nc1ccn([C@@H]2O[C@H](CO)[C@@H](O)[C@@H]2O)c(=O)n1 [CYTARABINE]	221	40.4	33.7	132
Cc1cc(Nc2ncc(Cl)c(Nc3ccccc3S(=O)(=O)C(C)C)n2)c(OC(C)C)cc1C1CCNCC1 [CERITINIB]	168	175	172	170
COc1cc2c(NC3CCN(C(C)C)CC3)nc(N3CCC(F)(F)CC3)nc2cc1OCCCN1CCCC1 [UNC0642]	203	0	1.33	145
COc1cc(NCc2ccc3nc(N)nc(N)c3c2C)cc(OC)c1OC [TRIMETREXATE]	140	27.5	18.8	47.1
CN1C(=O)[C@@]23C[C@]4([C@]56C[C@@]78SS[C@@](CO)(C(=O)N7[C@H]5Nc5ccccc56)N(C)C8=O)c5ccccc5N[C@@H]4N2C(=O)[C@]1(CO)SS3 [CHAETOCIN]	374	327	349	373
CO[C@@]12[C@H](COC(N)=O)C3=C(C(=O)C(C)=C(N)C3=O)N1C[C@@H]1N[C@@H]12 [MITOMYCIN C]	100	11.1	4.39	78.3
CC(=O)c1c(C)c2cnc(Nc3ccc(N4CCNCC4)cn3)nc2n(C2CCCC2)c1=O [PALBOCICLIB]	78.6	0	0	65.5

Compound	area under dose-response curve [1]	area under dose-response curve [2]	area under dose-response curve [3]	area under dose-response curve [4]
Nc1ncn([C@@H]2O[C@H](CO)[C@@H](O)[C@H]2O)c(=O)n1 [5-AZACYTIDINE]	58.3	33.8	21.5	23.6
CCOC(=O)c1ccc(C#Cc2ccc3c(c2)C(C)(C)CCS3)nc1 [TAZAROTENE]	9.49	3.59		0.284
Cn1nnc2c(C(N)=O)ncn2c1=O [TEMOZOLOMIDE]	0	0	0	
CCN1CCN(Cc2ccc(Nc3ncc(F)c(-c4cc(F)c5nc(C)n(C(C)C)c5c4)n3)nc2)CC1 [ABEMACICLIB]				14.4
S=c1[nH]cnc2nc[nH]c12 [MERCAPTOPURINE]	21.7	8.11	12.1	13.1
CO[C@H]1C[C@@H]2CC[C@@H](C)[C@@](O)(O2)C(=O)C(=O)N2CCCC[C@H]2C(=O)O[C@H]([C@H](C)C[C@@H]2CC[C@@H](OC(=O)C(C)(CO)CO)[C@H](OC)C2)CC(=O)[C@H](C)/C=C(\C)[C@@H](O)[C@@H](OC)C(=O)[C@H](C)C[C@H](C)/C=C/C=C/C=C/1C [TEMSIROLIMUS]		8.87 ± 0.32		43.4
Cn1cnc2c(F)c(Nc3ccc(Br)cc3Cl)c(C(=O)NOCCO)cc21 [SELUMETINIB]	0	0	0.45	18.9
CC1=C(CC(=O)O)c2cc(F)ccc2/C1=C\c1ccc([S+](C)[O-])cc1 (centres undefined) [SULINDAC]	0		0	0
COc1cc2nc(N3CCCN(C)CC3)nc(NC3CCN(Cc4ccccc4)CC3)c2cc1OC	247	195	194	243
O=C(c1cc(Cc2n[nH]c(=O)c3ccccc23)ccc1F)N1CCN(C(=O)C2CC2)CC1 [OLAPARIB]	23.6	9.23		0
CC(C)n1nc(-c2ccc3oc(N)nc3c2)c2c(N)ncnc21 [INK-128]	38.7	36.2	29.5	59.3
Cn1c(=O)n(-c2ccc(C(C)(C)C#N)cc2)c2c3cc(-c4cnc5ccccc5c4)ccc3ncc21 [DACTOLISIB]	132	73.9	62.3	96.3
CC(/C=C/C(=O)NO)=C\[C@@H](C)C(=O)c1ccc(N(C)C)cc1 [TRICHOSTATIN A]	310	159	124	282
COC1=CC(c2cc3ccccc3[nH]2)=N/C1=C\c1[nH]c(C)cc1C [OBATOCLAX]	255	195	178	229
CS(=O)(=O)c1ccc(C(=O)Nc2ccc(Cl)c(-c3ccccn3)c2)c(Cl)c1 [VISMODEGIB]	0	0	0	0
CCN(CC)Cc1ccc2cc(COC(=O)Nc3ccc(C(=O)NO)cc3)ccc2c1 [GIVINOSTAT]	283	132	96.7	226
OC[C@H]1O[C@@H](n2cnc3c2N=CNC[C@H]3O)C[C@@H]1O [PENTOSTATIN]	0	0	0	
Nc1nccc2c1ncn2[C@@H]1C=C(CO)[C@@H](O)[C@H]1O [3-DEAZANEPLANOCIN]	119	15.9	10.3	40.9
COC(=O)N[C@@H](C)CNc1nccc(-c2cn(C(C)C)nc2-c2cc(Cl)cc(NS(C)(=O)=O)c2F)n1 [LGX-818]	2.41	12.9	11	68.6
C=C(c1ccc(C(=O)O)cc1)c1cc2c(cc1C)C(C)(C)CCC2(C)C [BEXAROTENE]		4.22 ± 5.2	11.9	0
